Laboratory results published in US20260207560A1, “PLURALITY OF GRANULES” (priority 2022, published 2026).
Where “and” joins values, the source holds several entries; their conditions need not be identical. Identical values can stand only once. Marks after values point to notes of the source that are not given here.

Assay: Compatibility of active ingredient with HPMC and gelatin capsule shells (assay, related substances)
Type: physicochemical
Conditions: for Assay (%): single vials
Description: Binary mixtures of the active ingredient with the capsules shells were made as follows: • An active ingredient doping solution (active ingredient dissolved in ethanol) was made ([…]). A 100 μL aliquot of this doping was used to ‘spike’ the 10 vials of each capsule shell type as described in Table 5. The nominal quantity of active ingredient per vial was therefore 50 μg. • No doping solution was added to the three control vials of the excipient. • The active vials were left open overnight to evaporate all the ethanol, before closing the vials. • Both the active and placebo control vials were placed on stability for up to 28 days at 25° C. and 50° C.

[1] = Gelatin capsule shell, 50° C., 28 days
[2] = HPMC capsule shell, 25° C., 14 days
[3] = HPMC capsule shell, 25° C., 14 days, listed as active ingredient
[4] = HPMC capsule shell, 25° C., 28 days
[5] = HPMC capsule shell, 25° C., 28 days, listed as active ingredient
[6] = HPMC capsule shell, 50° C., 14 days
[7] = HPMC capsule shell, 50° C., 14 days, listed as active ingredient
[8] = HPMC capsule shell, 50° C., 28 days
[9] = HPMC capsule shell, 50° C., 28 days, listed as active ingredient
[10] = HPMC capsule shell, initial, listed as active ingredient
[11] = Hard Gelatin capsule shell, 25° C., 14 days, listed as active ingredient
[12] = Hard Gelatin capsule shell, 25° C., 28 days, listed as active ingredient
[13] = Hard Gelatin capsule shell, 50° C., 14 days
[14] = Hard Gelatin capsule shell, 50° C., 14 days, listed as active ingredient
[15] = Hard Gelatin capsule shell, 50° C., 28 days
[16] = Hard Gelatin capsule shell, 50° C., 28 days, listed as active ingredient
[17] = Hard Gelatin capsule shell, initial
[18] = Hard Gelatin capsule shell, initial, listed as active ingredient

For `CCS(=O)(=O)Nc1ccc2c(c1)nc(C(C)(C)C)n2CC1CCC(F)(F)CC1` [Compound I, N-(2-(tert-butyl)-1-((4,4-difluorocyclohexyl)methyl)-1H-benzimidazol-5-yl)ethanesulfonamide], the “Assay (%), mean” value (Gelatin capsule shell, 25° C., 14 days) was 98.1%, the “Assay (%)” value (Gelatin capsule shell, 25° C., 14 days, listed as active ingredient) was 98.9% and 97.4% and the “Assay (%), mean” value (Gelatin capsule shell, 25° C., 28 days) was 99.1%. The “Assay (%)” value (Gelatin capsule shell, 25° C., 28 days, listed as active ingredient) was 98.8% and 99.4%, the “Assay (%), mean” value (Gelatin capsule shell, 50° C., 14 days) was 99.3% and the “Assay (%)” value (Gelatin capsule shell, 50° C., 14 days, listed as active ingredient) was 99.3% and 99.4%. The “Assay (%), mean” value [1] was 89.3%, the “Assay (%)” value [1] was 99.4% and the “Assay (%), mean” value (Gelatin capsule shell, initial) was 99.6%. The “Assay (%)” value (Gelatin capsule shell, initial, listed as active ingredient) was 99.0% and 100.2%, the “Assay (%), mean” value [2] was 95.8% and the “Related substance RRT 1.04” value [2] was 0.08%. The “Related substance RRT 1.10” value [2] was 0.09%, the “Related substance RRT 0.92” value [3] was 0.08% and 0.07% and the “Related substance RRT 0.98” value [3] was 0.31% and 0.32%. For the same molecule, the “Related substance RRT 1.35” value [3] was 0.13% and 0.12%, the “Related substance RRT 1.36” value [3] was 0.13% and 0.12% and the Related substances total [3] was 0.82% and 0.80%. The “Assay (%)” value [2] was 98.9%, the “Assay (%), mean” value [4] was 99.1% and the “Related substance RRT 0.92” value [4] was 0.08%. For the same molecule, the “Related substance RRT 1.04” value [4] was 0.07%, the Related substances total [4] was 0.79% and the “Related substance RRT 0.98” value [5] was 0.3% and 0.31%. For the same molecule, the “Related substance RRT 1.10” value [5] was 0.09% and 0.08%, the “Related substance RRT 1.35” value [5] was 0.12% and 0.13% and the “Related substance RRT 1.36” value [5] was 0.12% and 0.13%. For the same molecule, the “Assay (%)” value [5] was 99.3% and 99.0%, the “Assay (%), mean” value [6] was 98.8% and the “Related substance RRT 0.97” value [6] was 0.67* %. The “Related substance RRT 1.04” value [6] was 0.07%, the “Related substance RRT 1.10” value [6] was 0.09% and the “Related substance RRT 1.36” value [6] was 0.12%. For the same molecule, the “Related substance RRT 0.92” value [7] was 0.07% and <0.05%, the “Related substance RRT 0.98” value [7] was 0.30% and 0.29% and the “Related substance RRT 1.35” value [7] was 0.13% and 0.12%. The Related substances total [7] was 0.79% and 1.37%, the “Assay (%)” value [7] was 98.9% and 98.7% and the “Assay (%), mean” value [8] was 98.9%. For the same molecule, the “Related substance RRT 0.92” value [8] was 0.07%, the “Related substance RRT 1.35” value [8] was 0.12% and the “Related substance RRT 0.98” value [9] was 0.31% and 0.32%. For the same molecule, the “Related substance RRT 1.04” value [9] was 0.07% and 0.09%, the “Related substance RRT 1.10” value [9] was 0.09% and 0.10% and the “Related substance RRT 1.36” value [9] was 0.12% and 0.13%. For the same molecule, the Related substances total [9] was 0.79% and 0.83%, the “Assay (%)” value [9] was 98.8% and 98.9% and the “Assay (%), mean” value (HPMC capsule shell, initial) was 97.8%. The “Related substance RRT 1.04” value (HPMC capsule shell, initial) was 0.07%, the “Related substance RRT 1.35” value (HPMC capsule shell, initial) was 0.13% and the “Related substance RRT 1.36” value (HPMC capsule shell, initial) was 0.13%. The “Related substance RRT 0.92” value [10] was 0.08% and 0.07%, the “Related substance RRT 0.98” value [10] was 0.3% and 0.31% and the “Related substance RRT 1.10” value [10] was 0.09% and 0.10%. For the same molecule, the Related substances total [10] was 0.81% and 0.82%, the “Assay (%)” value [10] was 96.5% and 99.0% and the “Degradation of the active ingredient (from % assay)” value (HPMC or gelatin capsules, all conditions and timepoints) was “no degradation”. For the same molecule, the “Related substance RRT 1.35” value (Hard Gelatin capsule shell, 25° C., 14 days) was 0.07%, the “Related substance RRT 0.92” value [11] was 0.05% and <0.05% and the “Related substance RRT 0.98” value [11] was 0.22% and 0.18%. The “Related substance RRT 1.04” value [11] was 0.05% and <0.05%, the “Related substance RRT 1.10” value [11] was 0.10% and 0.09% and the “Related substance RRT 1.36” value [11] was 0.07% and 0.08%. The Related substances total [11] was 0.56% and 0.42%, the “Related substance RRT 1.04” value (Hard Gelatin capsule shell, 25° C., 28 days) was less than 0.05% and the “Related substance RRT 0.92” value [12] was 0.05% and <0.05%. The “Related substance RRT 0.98” value [12] was 0.18% and 0.14%, the “Related substance RRT 1.10” value [12] was 0.08% and 0.09% and the “Related substance RRT 1.35” value [12] was 0.07% and 0.06%. The “Related substance RRT 1.36” value [12] was 0.08% and 0.07%, the Related substances total [12] was 0.47% and 0.36% and the “Related substance RRT 0.92” value [13] was less than 0.05%. The “Related substance RRT 1.04” value [13] was less than 0.05%, the “Related substance RRT 1.10” value [13] was 0.09% and the “Related substance RRT 1.35” value [13] was 0.06%. For the same molecule, the “Related substance RRT 1.36” value [13] was 0.07%, the “Related substance RRT 0.98” value [14] was 0.14% and 0.12% and the Related substances total [14] was 0.37% and 0.34%. The “Related substance RRT 0.92” value [15] was less than 0.05%, the “Related substance RRT 1.04” value [15] was less than 0.05% and the “Related substance RRT 1.35” value [15] was 0.06%. The “Related substance RRT 1.36” value [15] was 0.07%, the Related substances total [15] was 0.33% and the “Related substance RRT 0.98” value [16] was 0.11% and 0.09%. For the same molecule, the “Related substance RRT 1.10” value [16] was 0.09% and 0.11%, the “Related substance RRT 1.04” value [17] was 0.05% and the “Related substance RRT 1.10” value [17] was 0.10%. The “Related substance RRT 1.36” value [17] was 0.08%, the “Related substance RRT 0.92” value [18] was 0.06% and 0.05% and the “Related substance RRT 0.98” value [18] was 0.26% and 0.24%. For the same molecule, the “Related substance RRT 1.35” value [18] was 0.08% and 0.07%, the Related substances total [18] was 0.62% and 0.58% and the Total impurities (both capsule types, all incubation times and temperatures) was “below 1%”.
